# Assay results from patent US6737383B1, “Herbicidal oxadiazolidines” (priority 1999, dated 2004).
# What was measured:
# bedstraw = experiment: Test B pre/postemergence bedstraw; type: in vivo, Galium aparine
# Procedure, shortened: (§1)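 Response is a visual 0-to-10 score relative to untreated plants, where 0 means no effect and 10 means complete control, taken twelve to sixteen days after application. Treatments went onto soil at planting and onto foliage of 1- to 4-leaf plants, using a surfactant-containing non-phytotoxic solvent.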
# blackgrass = experiment: Test B pre/postemergence blackgrass; type: in vivo, Alopecurus myosuroides
# Procedure, shortened: as §1
# surinam grass = experiment: Test B pre/postemergence surinam grass; type: in vivo, Brachiaria decumbens
# Procedure, shortened: as §1
# cocklebur = experiment: Test B pre/postemergence cocklebur; type: in vivo, Xanthium strumarium
# Procedure, shortened: as §1
# crabgrass = experiment: Test B pre/postemergence crabgrass; type: in vivo, Digitaria sanguinalis
# Procedure, shortened: as §1
# giant foxtail = experiment: Test B pre/postemergence giant foxtail; type: in vivo, Setaria faberii
# Procedure, shortened: as §1
# morningglory = experiment: Test B pre/postemergence morningglory; type: in vivo, Ipomoea hederacea
# Procedure, shortened: as §1
# pigweed = experiment: Test B pre/postemergence pigweed; type: in vivo, Amaranthus retroflexus
# Procedure, shortened: as §1
# soybean = experiment: Test B pre/postemergence soybean; type: in vivo, Glycine max
# Procedure, shortened: as §1
# velvetleaf = experiment: Test B pre/postemergence velvetleaf; type: in vivo, Abutilon theophrasti
# Procedure, shortened: as §1
# wheat = experiment: Test B pre/postemergence wheat; type: in vivo, Triticum aestivum
# Procedure, shortened: as §1
# wild oat = experiment: Test B pre/postemergence wild oat; type: in vivo, Avena fatua
# Procedure, shortened: as §1
# purple nutsedge = experiment: Test B pre/postemergence purple nutsedge; type: in vivo, Cyperus rotundus
# Procedure, shortened: as §1
# rice = experiment: Test B flood test rice; type: in vivo, Oryza sativa
# Procedure, shortened: (§2)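 Flood test on plants grown to the 2-leaf stage; treated plants kept in greenhouse twelve to sixteen days, then visually rated against controls on a 0 (no effect) to 10 (complete control) scale.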
# smallflower flatsedge = experiment: Test B flood test smallflower flatsedge; type: in vivo, Cyperus difformis
# Procedure, shortened: as §2
# bamyardgrass = experiment: Test B flood test barnyardgrass; type: in vivo, Echinochloa crus-galli
# Procedure, shortened: as §2
# [1] = Preemergence, Rate 31 g/ha, visual rating, scale 0 to 10 (0 no effect, 10 complete control)
# [2] = Preemergence, Rate 62 g/ha, scale of 0 to 10 where 0 is no effect and 10 is complete control
# [3] = Preemergence, Rate 250 g/ha, scale of 0 to 10 where 0 is no effect and 10 is complete control
# [4] = Rate 31 g/ha, Postemergence, scale 0 to 10
# [5] = Rate 62 g/ha, Postemergence, scale 0 to 10, 0 no effect, 10 complete control
# [6] = Rate 125 g/ha, Postemergence, scale of 0 to 10 where 0 is no effect and 10 is complete control
# [7] = Rate 125 g/ha, Preemergence, scale of 0 to 10 where 0 is no effect and 10 is complete control
# [8] = Rate 250 g/ha, Postemergence, scale of 0 to 10 where 0 is no effect and 10 is complete control
# [9] = Rate 31 g/ha, Pre-emergence section (flood test species), scale 0 to 10
# [10] = Rate 62 g/ha, headed Pre-emergence (flood test species), scale 0 to 10 (0 no effect, 10 complete control)
# [11] = Rate 125 g/ha, Pre-emergence, flood test species, scale 0 to 10 where 0 is no effect and 10 is complete control
# [12] = Rate 250 g/ha, Pre-emergence, flood-test species, scale 0 to 10, 0 is no effect, 10 is complete control
structure (smiles),measurement,setting,value
CC(Cl)=CCn1c(=O)on(C(=O)N(c2ccc(F)cc2)C(C)C)c1=O [Compound 285],Bedstraw plant response rating,bedstraw; [1],0
same,Bedstraw plant response rating,bedstraw; [2],0
same,Bedstraw plant response rating,bedstraw; [3],8
same,Bedstraw plant response rating,bedstraw; [4],0
same,Bedstraw plant response rating,bedstraw; [5],0
same,Bedstraw plant response rating,bedstraw; [6],5
same,Bedstraw plant response rating,bedstraw; [7],0
same,"Plant response rating, Bedstraw",bedstraw; [8],7
same,Blackgrass plant response rating,blackgrass; [1],0
same,Blackgrass plant response rating,blackgrass; [2],0
same,Blackgrass plant response rating,blackgrass; [3],5
same,Blackgrass plant response rating,blackgrass; [4],0
same,Blackgrass plant response rating,blackgrass; [5],0
same,Blackgrass plant response rating,blackgrass; [6],2
same,Blackgrass plant response rating,blackgrass; [7],4
same,"Plant response rating, Blackgrass",blackgrass; [8],7
same,B. signalgrass plant response rating,surinam grass; [1],0
same,B. signalgrass plant response rating,surinam grass; [2],2
same,B. signalgrass plant response rating,surinam grass; [3],10
same,B. signalgrass plant response rating,surinam grass; [4],0
same,B. signalgrass plant response rating,surinam grass; [5],0
same,B. signalgrass plant response rating,surinam grass; [6],0
same,B. signalgrass plant response rating,surinam grass; [7],5
same,"Plant response rating, B. signalgrass",surinam grass; [8],0
same,Cocklebur plant response rating,cocklebur; [1],0
same,Cocklebur plant response rating,cocklebur; [2],0
same,Cocklebur plant response rating,cocklebur; [3],0
same,Cocklebur plant response rating,cocklebur; [4],0
same,Cocklebur plant response rating,cocklebur; [5],0
same,Cocklebur plant response rating,cocklebur; [6],0
same,Cocklebur plant response rating,cocklebur; [7],0
same,"Plant response rating, Cocklebur",cocklebur; [8],0
same,Crabgrass plant response rating,crabgrass; [1],0
same,Crabgrass plant response rating,crabgrass; [2],4
same,Crabgrass plant response rating,crabgrass; [3],8
same,Crabgrass plant response rating,crabgrass; [4],0
same,Crabgrass plant response rating,crabgrass; [5],0
same,Crabgrass plant response rating,crabgrass; [6],3
same,Crabgrass plant response rating,crabgrass; [7],8
same,"Plant response rating, Crabgrass",crabgrass; [8],7
same,Giant foxtail plant response rating,giant foxtail; [1],7
same,Giant foxtail plant response rating,giant foxtail; [2],8
same,Giant foxtail plant response rating,giant foxtail; [3],10
same,Giant foxtail plant response rating,giant foxtail; [4],0
same,Giant foxtail plant response rating,giant foxtail; [5],0
same,Giant foxtail plant response rating,giant foxtail; [6],0
same,Giant foxtail plant response rating,giant foxtail; [7],9
same,"Plant response rating, Giant foxtail",giant foxtail; [8],0
same,Morningglory plant response rating,morningglory; [1],0
same,Morningglory plant response rating,morningglory; [2],0
same,Morningglory plant response rating,morningglory; [3],0
same,Morningglory plant response rating,morningglory; [4],1
same,Morningglory plant response rating,morningglory; [5],3
same,Morningglory plant response rating,morningglory; [6],5
same,Morningglory plant response rating,morningglory; [7],0
same,"Plant response rating, Morningglory",morningglory; [8],5
same,Redroot pigweed plant response rating,pigweed; [1],0
same,Redroot pigweed plant response rating,pigweed; [2],0
same,Redroot pigweed plant response rating,pigweed; [3],5
same,Redroot pigweed plant response rating,pigweed; [4],0
same,Redroot pigweed plant response rating,pigweed; [5],0
same,Redroot pigweed plant response rating,pigweed; [6],0
same,Redroot pigweed plant response rating,pigweed; [7],2
same,"Plant response rating, Redroot pigweed",pigweed; [8],0
same,Soybean plant response rating,soybean; [1],0
same,Soybean plant response rating,soybean; [2],0
same,Soybean plant response rating,soybean; [3],0
same,Soybean plant response rating,soybean; [5],2
same,Soybean plant response rating,soybean; [6],2
same,Soybean plant response rating,soybean; [7],0
same,"Plant response rating, Soybean",soybean; [8],3
same,Velvetleaf plant response rating,velvetleaf; [1],0
same,Velvetleaf plant response rating,velvetleaf; [2],0
same,Velvetleaf plant response rating,velvetleaf; [3],3
same,Velvetleaf plant response rating,velvetleaf; [5],0
same,Velvetleaf plant response rating,velvetleaf; [6],0
same,Velvetleaf plant response rating,velvetleaf; [7],2
same,"Plant response rating, Velvetleaf",velvetleaf; [8],1
same,Wheat plant response rating,wheat; [1],0
same,Wheat plant response rating,wheat; [2],0
same,Wheat plant response rating,wheat; [3],0
same,Wheat plant response rating,wheat; [5],0
same,Wheat plant response rating,wheat; [6],0
same,Wheat plant response rating,wheat; [7],0
same,"Plant response rating, Wheat",wheat; [8],0
same,Wild oats plant response rating,wild oat; [1],0
same,Wild oats plant response rating,wild oat; [2],0
same,Wild oats plant response rating,wild oat; [3],3
same,Wild oats plant response rating,wild oat; [5],0
same,Wild oats plant response rating,wild oat; [6],0
same,"Plant response rating, Wild oats",wild oat; [8],0
same,Nutsedge plant response rating,purple nutsedge; [1],0
same,Nutsedge plant response rating,purple nutsedge; [2],0
same,Nutsedge plant response rating,purple nutsedge; [3],0
same,Nutsedge plant response rating,purple nutsedge; [4],0
same,Nutsedge plant response rating,purple nutsedge; [5],0
same,Nutsedge plant response rating,purple nutsedge; [6],0
same,Nutsedge plant response rating,purple nutsedge; [7],0
same,"Plant response rating, Nutsedge",purple nutsedge; [8],0
same,Rice plant response rating,rice; [9],0
same,Rice plant response rating,rice; [10],0
same,Rice plant response rating,rice; [11],0
same,Rice plant response rating,rice; [12],0
same,S. Flatsedge plant response rating,smallflower flatsedge; [9],0
same,S. Flatsedge plant response rating,smallflower flatsedge; [10],0
same,S. Flatsedge plant response rating,smallflower flatsedge; [11],0
same,S. Flatsedge plant response rating,smallflower flatsedge; [12],0
same,Barnyardgrass plant response rating,bamyardgrass; [9],0
same,Barnyardgrass plant response rating,bamyardgrass; [10],0
same,Barnyardgrass plant response rating,bamyardgrass; [11],0
same,Barnyardgrass plant response rating,bamyardgrass; [12],7
